Test results: patent US20190070140A1, “COMPOSITION COMPRISING PROTECTIN DX AS ACTIVE INGREDIENT FOR PREVENTING OR TREATING HYPERLIPIDEMIA OR FATTY LIVER DISEASE” (Solvit P&F, priority 2017, published 2019)

What was measured:
[1] = system: SREBP1, FAS and SCD1; assay: Western-blot assay of adipogenesis-related genes in livers of HFD mice; type: in vivo, mouse; details: PDX i.p. 1 μg/mice/day for 8 weeks, vs HFD, FIG. 5B
Method: (§1) The present study has received the approval of the Institutional Animal Review Committee (Institutional Animal Care and Use Committee in Korea University, Seoul, Korea). The animal experiment was conducted according to the Guide for Care and Use of Laboratory Animals (NH publication, 8th Ed., 2011). A control group and a group of male C57BL/6J(B6) mice at 8 weeks of age were subjected to a normal diet (ND, Brogaarden, Gentofte, Denmark) and a high fat diet (HFD, Research Diets, New Brunswick, N.J., USA) for 8 weeks, respectively. The HFD (high fat diet) group was provided with intra-peritoneal injection of PDX for 8 weeks (1 μg/mice/day). An ethanol injection group was used as a control group. […] A protein sample (35 μg) was applied to 12% SDS-PAGE, transferred to a nitrocellulose film (Amersham Bioscience, Westborough, Mass., USA), detected with a primary antibody, followed by probing with a secondary antibody and another secondary antibody conjugated with horseradish […] (Santa Cruz Biotechnology). The sample was detected by ECL kit. The present inventors have assessed PDX effects upon lipid accumulation in a mouse. For this purpose, a liver cut section from a mouse was subjected to histological assay and western-blot assay through H&E staining and Oil-Red-O staining, while TG accumulation was measured using a TG analysis kit.

[2] = system: influenza virus; details: through RNA export system; reported; cited from earlier work
[3] = system: HepG2 cells; assay: Palmitate-induced TG accumulation in HepG2 cells, Oil-Red-O staining with isopropyl alcohol extraction; type: cell-based, Human
Method: Human liver cells, that is, HepG2 cells (ATCC, Manassas, Va., USA) were cultured in high-glucose Dulbecco's modified eagle medium (DMEM, Invitrogen, Carlsbad, Calif., USA), which includes 10% fetal bovine serum (FBS, Invitrogen), 100 units/mL of penicillin and 100 μg/ml of streptomycin. The cells were incubated at 37° C. under a condition of 5% CO2.
Mycoplasma was not detected in HepG2 cells. PDX (Cayman Chemical, Ann Arbor, Mich., USA) was dissolved in ethanol. Sodium palmitate (Sigma, St. Louis, Mo., USA) was mixed with 2% BSA (fatty acid free level; Sigma) in DMEM. […] In all experiments, the cells were treated with palmitate-BSA and PDX for 24 hours, while 2% BSA-ethanol was used as a control group.
(§2) HepG2 cells and a cut section of the liver in a mouse were stained by Oil-Red-O staining method, in order to determine cellular triglyceride such as triglyceride, that is, TG. The liver cells were fixed with 10% formalin for 40 minutes, and then stained with Oil-Red-O solution (Sigma) at 37° C. for 1 hour. A content of Oil-Red-O stained TG was quantified by adding isopropanol to each of the samples. The mixture was gently stirred at 25° C. for 8 minutes. Lastly, 100 μl of isopropanol-extracted sample was analyzed by a spectrophotometer at 510 nm.
In the presence of 200 μM palmitate and PDX (0 to 2 μm), HepG2 cells were subjected to Oil-Red-O staining for 24 hours, while TG accumulation was quantified by isopropyl alcohol extraction.
Further, the present inventors have executed Oil-Red-O staining with respect to palmitate-treated HepG2 cells for 24 hours. TG accumulation was quantified by extraction using isopropyl alcohol.

[4] = system: HFD diet mouse; assay: Hepatic steatosis in HFD diet mouse: H&E and Oil-Red-O staining, TG analysis kit; type: in vivo; details: HFD mice, PDX i.p. 1 μg/mice/day for 8 weeks
Method: (§3) The present study has received the approval of the Institutional Animal Review Committee (Institutional Animal Care and Use Committee in Korea University, Seoul, Korea). The animal experiment was conducted according to the Guide for Care and Use of Laboratory Animals (NH publication, 8th Ed., 2011). A control group and a group of male C57BL/6J(B6) mice at 8 weeks of age were subjected to a normal diet (ND, Brogaarden, Gentofte, Denmark) and a high fat diet (HFD, Research Diets, New Brunswick, N.J., USA) for 8 weeks, respectively. The HFD (high fat diet) group was provided with intra-peritoneal injection of PDX for 8 weeks (1 μg/mice/day). An ethanol injection group was used as a control group.
as §2
Total lipids were extracted using a mixture of 2:1 chloroform:methanol (2:1, v/v). An organic layer was dissolved in 60% methanol immediately after drying the same. The extracted TG was measured by a colormetric TG analysis kit according to instructions of the manufacturer (Biovision, Milpitas, Calif., USA).
The present inventors have assessed PDX effects upon lipid accumulation in a mouse. For this purpose, a liver cut section from a mouse was subjected to histological assay and western-blot assay through H&E staining and Oil-Red-O staining, while TG accumulation was measured using a TG analysis kit.

[5] = system: ORP150; assay: Western-blot assay of ORP150 expression in livers of HFD mice; type: in vivo, mouse; details: PDX i.p. 1 μg/mice/day for 8 weeks, FIG. 5D
Method: as §1

[6] = system: adiponectin; assay: Adiponectin level in blood serum of HFD mice; type: in vivo, mouse; details: PDX i.p. 1 μg/mice/day for 8 weeks, FIG. 5E
Method: as §3

[7] = system: ORP150; assay: Western-blot assay of ORP150 in HepG2 cells; type: cell-based, Human; details: 2 μm PDX, 24 hours, FIG. 3A
Method: After collecting HepG2 cells, protein was extracted from the cells with a buffer (PRO-PREF; Intron Biotechnology, Seoul, Korea) at 4° C. for 1 hour. A protein sample (35 μg) was applied to 12% SDS-PAGE, transferred to a nitrocellulose film (Amersham Bioscience, Westborough, Mass., USA), detected with a primary antibody, followed by probing with a secondary antibody and another secondary antibody conjugated with horseradish […] (Santa Cruz Biotechnology). The sample was detected by ECL kit. Under 70% comfluency, 0 to 20 nmol/L […] (si)RNA oligonucleotide to ORP150 purchased from Santa Cruz Biotechnology was transfected to inhibit gene expression. Scramble siRNA was used as a control group. 2 or 4 μg of pCMV3-ORP150 (Sino Biological, Beijing, China) was transiently transfected, leading to over-expression of ORP150. pCMV3 empty-vector was used as a control group. According to instruction of the manufacturer, transfection was executed using lipofectamine 2000 (Invitrogen). The present inventors have executed western-blot assay of ORP150 in HepG2 cells transfected with scramble siRNA or siFOXO1 in the presence of 2 μm of PDX for 24 hours.

CC/C=C\C[C@H](O)/C=C/C=C\C=C\[C@@H](O)C/C=C\C/C=C\CCC(=O)O [PDX, 10S,17S-dihydroxy-docosa-4Z,7Z,11E,13Z,15E,19Z-hexaeonic acid]
expression of adipogenesis-related genes SREBP1, FAS and SCD1 in the liver [1]: significantly reduced
replication of influenza virus [2]: inhibits
palmitate-induced TG accumulation ([3]; 200 μM palmitate, PDX 0 to 2 μm, 24 hours, FIG. 1A): inhibited
TG accumulation inhibitory effects of PDX ([3]; palmitate, silencing ORP150, FIG. 2B): reduced
palmitate-induced TG accumulation ([3]; scramble siRNA, PDX administration, FIG. 2B): inhibited
intracellular fat deposit rate (stained liver cut section) ([4]; compared to HFD diet group, FIG. 5A left): decrease
accumulation of triglyceride in the liver ([4]; vs HFD, FIG. 5A): considerably reduced
hepatic fibrosis (stained liver cut section) ([4]; FIG. 5A left): very little hepatic fibrosis
ORP150 expression suppressed in the liver by HFD [5]: remarkably recovered
level of adiponectin in blood serum [6]: increased
PDX effects of promoting ORP150 expression ([7]; HepG2 cells transfected with FOXO1 siRNA): inhibited
ORP150 expression level ([7]; HepG2 cells, scramble siRNA): increased
